The structures appear in SMILES notation.

Format in all cases: biochemical
For assay [1], the target named is T1, delta receptors, rat brain membranes (Rattus norvegicus, UniProt P33533).
T1 construct: from tissue; host or cells: rat brain homogenate
Nature of the assay: GTP[γ]35S binding functional assay, homogenised rat brain. To be noted: rat brain homogenate, read-out: RAT BRAIN % E Max. On the procedure:
(§1) B. Mouse and rat brains were weighed and rinsed in ice-cold PBS (containing 2.5 mM EDTA, pH 7.4). The brains were homogenized with a polytron for 15 sec (mouse) or 30 sec (rat) in ice-cold lysis buffer (50 mM Tris, pH 7.0, 2.5 mM EDTA, with phenylmethylsulfonyl fluoride added just prior use to […] from a 0.5M stock in DMSO:ethanol).
(§2) The agonist activity of the compounds is measured by determining the degree to which the compounds receptor complex activates the binding of GTP to G-proteins to which the receptors are coupled. In the GTP binding assay, GTP[γ]^35S is combined with test compounds and membranes from HEK-293S cells expressing the cloned human opioid receptors or from homogenised rat and mouse brain. Agonists stimulate GTP[γ]^35S binding in these membranes. The EC50 and Emax values of compounds are determined from dose-response curves. Right shifts of the dose response curve by the delta antagonist naltrindole are performed to verify that agonist activity is mediated through delta receptors.
A general note: GTPγS resists hydrolysis and so accumulates on activated G proteins.

The target in assay [2] is T2, delta receptors, mouse brain membranes (Mus musculus, UniProt P32300).
T2 construct: from tissue; host or cells: mouse brain homogenate
The assay can be described thus: GTP[γ]35S binding functional assay, homogenised mouse brain. To be noted: mouse brain homogenate, read-out: MOUSE BRAIN % E Max. The procedure: as §1, §2

Assay [3] deals with T3, cloned human δ receptor (HDELTA) (Homo sapiens, UniProt P41143).
T3 construct: expressed in transfected cells; host or cells: human 293S (HEK-293S) cells, geneticin-selected
The assay can be described thus: GTP[γ]35S binding functional assay, membranes from HEK-293S cells expressing cloned human opioid receptors. To be noted: HEK-293S membranes, read-out: HDELTA % E Max. The procedure: A. Human 293S cells expressing cloned human μ, δ, and κ receptors and neomycin resistance were grown in suspension at 37° C. and 5% CO2 in shaker flasks containing calcium-free DMEM10% FBS, 5% BCS, 0.1% Pluronic F-68, and 600 μg/ml geneticin.
Cells were pelleted and resuspended in lysis buffer (50 mM Tris, pH 7.0, 2.5 mM EDTA, with PMSF added just prior to use to 0.1 mM from a 0.1 M stock in ethanol), incubated on ice for 15 min, then homogenized with a polytron for 30 sec. The suspension was spun at 1,000 g (max) for 10 min at 4° C. The supernatant was saved on ice and the pellets resuspended and spun as before. The supernatants from both spins were combined and spun at 46,000 g(max) for 30 min. The pellets were resuspended in cold Tris buffer (50 mM Tris/Cl, pH 7.0) and spun again. The final pellets were resuspended in membrane buffer (50 mM Tris, 0.32 M sucrose, pH 7.0). Aliquots (1 ml) in polypropylene tubes were frozen in dry ice/ethanol and stored at −70° C. until use. The protein concentrations were determined by a modified Lowry assay with SDS.
as §2

T1 sequence (P33533 whole entry): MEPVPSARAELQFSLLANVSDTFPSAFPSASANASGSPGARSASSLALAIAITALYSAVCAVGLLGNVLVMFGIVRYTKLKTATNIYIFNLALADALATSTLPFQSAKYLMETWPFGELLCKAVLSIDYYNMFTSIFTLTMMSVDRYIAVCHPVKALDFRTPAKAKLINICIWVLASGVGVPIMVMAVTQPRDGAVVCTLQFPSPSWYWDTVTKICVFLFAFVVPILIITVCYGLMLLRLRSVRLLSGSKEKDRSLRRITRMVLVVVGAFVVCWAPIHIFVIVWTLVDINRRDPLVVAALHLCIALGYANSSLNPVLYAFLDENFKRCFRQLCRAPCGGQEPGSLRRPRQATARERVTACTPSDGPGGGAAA
T2 sequence (P32300 whole entry): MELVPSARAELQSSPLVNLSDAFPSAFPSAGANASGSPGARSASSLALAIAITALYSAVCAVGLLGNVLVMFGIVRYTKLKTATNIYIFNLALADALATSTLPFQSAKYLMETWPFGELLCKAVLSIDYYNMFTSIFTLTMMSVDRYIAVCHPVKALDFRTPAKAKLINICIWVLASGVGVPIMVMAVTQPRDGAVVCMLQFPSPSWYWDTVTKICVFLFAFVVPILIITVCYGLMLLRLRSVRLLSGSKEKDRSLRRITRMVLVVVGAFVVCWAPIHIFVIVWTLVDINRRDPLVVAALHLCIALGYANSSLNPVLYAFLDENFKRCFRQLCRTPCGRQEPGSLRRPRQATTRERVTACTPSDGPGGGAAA
T3 sequence (P41143 whole entry): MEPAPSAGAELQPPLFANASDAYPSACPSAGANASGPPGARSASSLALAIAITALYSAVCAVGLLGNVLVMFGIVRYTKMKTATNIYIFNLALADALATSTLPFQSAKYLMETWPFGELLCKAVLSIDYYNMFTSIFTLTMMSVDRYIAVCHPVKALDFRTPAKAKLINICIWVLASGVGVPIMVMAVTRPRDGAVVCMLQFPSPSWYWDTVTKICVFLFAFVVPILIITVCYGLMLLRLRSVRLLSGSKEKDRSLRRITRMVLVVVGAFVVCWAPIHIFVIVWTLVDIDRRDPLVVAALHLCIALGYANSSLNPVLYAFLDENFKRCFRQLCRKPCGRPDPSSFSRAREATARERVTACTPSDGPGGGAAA

As to `CCN(CC)C(=O)c1ccc(C(=C2CCN(Cc3ccco3)CC2)c2cccc(O)c2)cc1` [Example 5, N,N-diethyl-4-[[1-(2-furylmethyl)-4-piperidinylidene](3-hydroxyphenyl)methyl]benzamide], the Emax in assay [1] is 132%; in assay [2] it was 134%; in assay [3] it was 94.8%.
In the same order, the values of `CCN(CC)C(=O)c1ccc(C(=C2CCN(Cc3nccs3)CC2)c2cccc(O)c2)cc1` [Example 11, N,N-diethyl-4-{(3-hydroxyphenyl)[1-(1,3-thiazol-2-ylmethyl)-4-piperidinylidene]methyl}benzamide] are 120%, 118% and 115%.
In the same order, the values of `CCN(CC)C(=O)c1ccc(C(=C2CCN(Cc3ccncc3)CC2)c2cccc(O)c2)cc1` [Example 8, N,N-diethyl-4-{(3-hydroxyphenyl)[1-(4-pyridinylmethyl)-4-piperidinylidene]methyl}benzamide] are 81.4%, 78.2% and 112%.
In the case of `CCN(CC)C(=O)c1ccc(C(=C2CCN(Cc3c[nH]cn3)CC2)c2cccc(O)c2)cc1` [Example 10, N,N-diethyl-4-{(3-hydroxyphenyl)[1-(1H-imidazol-4-ylmethyl)-4-piperidinylidene]methyl}benzamide], the Emax in assay [1] was 102%; in assay [2], 104%; in assay [3] it was 107%.
In the same order, the values of `CCN(CC)C(=O)c1ccc(C(=C2CCN(Cc3ncc[nH]3)CC2)c2cccc(O)c2)cc1` [Example 9, N,N-diethyl-4-{(3-hydroxyphenyl)[1-(1H-imidazol-2-ylmethyl)-4-piperidinylidene]methyl}benzamide] are 151%, 136% and 106%.
In the same order, the values of `CCN(CC)C(=O)c1ccc(C(=C2CCN(Cc3ccccc3)CC2)c2cccc(O)c2)cc1` [Example 2, N,N-diethyl-4-(3-hydroxylphenyl-N-benzyl-piperidin-4-ylidene-methyl)-benzamide] are 112%, 104% and 104%.
Taken in the same sequence, the figures for `CCN(CC)C(=O)c1ccc(C(=C2CCN(Cc3cccs3)CC2)c2cccc(O)c2)cc1` [Example 3, N,N-diethyl-4-{(3-hydroxyphenyl)[1-(2-thienylmethyl)-4-piperidinylidene]methyl}benzamide] were 168%, 186% and 98.2%.
`CCN(CC)C(=O)c1ccc(C(=C2CCN(Cc3ccccn3)CC2)c2cccc(O)c2)cc1` [Example 7, N,N-diethyl-4-{(3-hydroxyphenyl)[1-(2-pyridinylmethyl)-4-piperidinylidene]methyl}benzamide]: the Emax turned out to be 135% in assay [1], 138% in assay [2] and 103% in assay [3].

The values above are taken from patent US6756387B2, “Hydroxyphenyl-piperidin-4-ylidene-methyl-benzamide derivatives for the treatment of pain” (AstraZeneca AB, priority 2000, dated 2004).
